The text below walks through data of ChEMBL document CHEMBL5512637, “Development of Membrane-Targeting Fluorescent 2-Phenyl-1H-phenanthro[9,10-d]imidazole-Antimicrobial Peptide Mimic Conjugates against Methicillin-Resistant Staphylococcus aureus” (J Med Chem, 2024).

In data set [1] the test system is Staphylococcus aureus. As to the kind of experiment: Antibacterial activity against methicillin-resistant Staphylococcus aureus clinical isolate M-2 incubated for 16 to 18 hrs CLSI based by microbroth dilution assay. Conditions: time 16-18 hrs. In kind it is functional.
Data set [2] has as its system Staphylococcus aureus. As to the kind of experiment: Antibacterial activity against methicillin-resistant Staphylococcus aureus clinical isolate M-5 incubated for 16 to 18 hrs CLSI based by microbroth dilution assay. In kind it is functional. The settings on record: time 16-18 hrs. For orientation: Broth dilution looks for growth in wells or tubes with falling amounts of substance.

Data set [3] in a line: Selectivity index, ratio of HC50 for sheep erythrocytes to MIC for Staphylococcus aureus ATCC 29213. In kind it is toxicity. The settings on record: read-out: Selectivity Index.
The nature of data set [4]: Hemolytic activity in sheep erythrocytes incubated for 1 hr by absorbance based assay. Type of data set: toxicity, cell-based, Ovis aries, Erythrocyte.
Data set [5] has as its system Staphylococcus aureus. Kind of data set: Antibacterial activity against methicillin-resistant Staphylococcus aureus clinical isolate M-3 incubated for 16 to 18 hrs CLSI based by microbroth dilution assay. In kind it is functional. The settings on record: time 16-18 hrs.
For data set [6], the system named is Staphylococcus aureus. As to the kind of experiment: Antibacterial activity against methicillin-resistant Staphylococcus aureus clinical isolate M-9 incubated for 16 to 18 hrs CLSI based by microbroth dilution assay. Type of data set: functional. Conditions: time 16-18 hrs.
For data set [7], the system named is Staphylococcus aureus. Kind of data set: Antibacterial activity against methicillin-resistant Staphylococcus aureus clinical isolate M-10 incubated for 16 to 18 hrs CLSI based by microbroth dilution assay. In kind it is functional. The settings on record: time 16-18 hrs.
For data set [8], the system named is Staphylococcus aureus. As to the kind of experiment: Antibacterial activity against methicillin-resistant Staphylococcus aureus clinical isolate M-6 incubated for 16 to 18 hrs CLSI based by microbroth dilution assay. The settings on record: time 16-18 hrs. Type of data set: functional.
In data set [9] the test system is Staphylococcus aureus. Kind of data set: Antibacterial activity against methicillin-resistant Staphylococcus aureus clinical isolate M-1 incubated for 16 to 18 hrs CLSI based by microbroth dilution assay. Type of data set: functional. Conditions: time 16-18 hrs.
For another data set, the system named is Escherichia coli. Kind of data set: Antibacterial activity against Escherichia coli ATCC 25922 incubated for 16 to 18 hrs CLSI based by microbroth dilution assay. In kind it is functional. The settings on record: time 16-18 hrs.
The test system of data set [10] is Staphylococcus aureus. As to the kind of experiment: Antibacterial activity against methicillin-resistant Staphylococcus aureus clinical isolate M-8 incubated for 16 to 18 hrs CLSI based by microbroth dilution assay. Type of data set: functional. Conditions: time 16-18 hrs.
Data set [11] relates to Staphylococcus aureus. As to the kind of experiment: Antibacterial activity against methicillin-resistant Staphylococcus aureus clinical isolate M-4 incubated for 16 to 18 hrs CLSI based by microbroth dilution assay. In kind it is functional. Conditions: time 16-18 hrs.
The test system of data set [12] is Staphylococcus aureus. As to the kind of experiment: Antibacterial activity against methicillin-resistant Staphylococcus aureus clinical isolate M-7 incubated for 16 to 18 hrs CLSI based by microbroth dilution assay. The settings on record: time 16-18 hrs. Type of data set: functional.
The test system of data set [13] is Staphylococcus aureus. As to the kind of experiment: Antibacterial activity against Staphylococcus aureus ATCC 29213 incubated for 16 to 18 hrs CLSI based by microbroth dilution assay. In kind it is functional. Conditions: time 16-18 hrs.

As a reminder, the MIC is the lowest concentration found to suppress growth. As a reminder, the HC50 is the concentration giving 50% haemolysis. The low end stands for more damage to red cells, the high end for less damage to red cells. `CCCNC(=O)C[N+](C)(C)CCCn1c(-c2ccc(N(C)C)cc2)nc2c3ccccc3c3ccccc3c21.[Br-]`: the MIC in the data set on Staphylococcus aureus [1] is 32 µg/mL; in the data set on Staphylococcus aureus [2] it was 64 µg/mL; against Staphylococcus aureus [5], 64 µg/mL; against Staphylococcus aureus [6], 32 µg/mL; in the data set with Staphylococcus aureus [7], 64 µg/mL; against Staphylococcus aureus [8], 64 µg/mL. Moreover, the MIC with Staphylococcus aureus [9] is 64 µg/mL; with Escherichia coli, greater than 128 µg/mL; against Staphylococcus aureus [10], 64 µg/mL; with Staphylococcus aureus [11], 32 µg/mL; in the data set on Staphylococcus aureus [12] it was 32 µg/mL; against Staphylococcus aureus [13], 32 µg/mL. Besides, the selectivity ratio in data set [3] was greater than 20. The compound further returned an HC50 at 1 h in data set [4] greater than 640 µg/mL.
For `CCNC(=O)C[N+](C)(C)CCCCCn1c(-c2ccc(N(C)C)cc2)nc2c3ccccc3c3ccccc3c21.[Br-]`, the MIC against Staphylococcus aureus [1], in the data set with Staphylococcus aureus [2], with Staphylococcus aureus [5], against Staphylococcus aureus [6], with Staphylococcus aureus [7] and against Staphylococcus aureus [8] was 32 µg/mL throughout. The MIC in the data set with Staphylococcus aureus [9] is 32 µg/mL; against Escherichia coli it was 128 µg/mL; against Staphylococcus aureus [10] it was 32 µg/mL; in the data set with Staphylococcus aureus [11], 32 µg/mL; against Staphylococcus aureus [12], 16 µg/mL; in the data set on Staphylococcus aureus [13] it was 16 µg/mL. For the same compound, the selectivity ratio in [3] was greater than 40. The compound further showed an HC50 at 1 h in [4] greater than 640 µg/mL.
As to `CCN(CC)C(=O)C[N+](C)(C)CCCCn1c(-c2ccc(N(C)C)cc2)nc2c3ccccc3c3ccccc3c21.[Br-]`, the MIC with Staphylococcus aureus [1], with Staphylococcus aureus [2], in the data set with Staphylococcus aureus [5], against Staphylococcus aureus [6], in the data set on Staphylococcus aureus [7] and in the data set on Staphylococcus aureus [8] was 16 µg/mL each time. In addition, the MIC in the data set with Staphylococcus aureus [9] was 16 µg/mL; against Escherichia coli it was greater than 128 µg/mL; in the data set with Staphylococcus aureus [10] it was 32 µg/mL; against Staphylococcus aureus [11] it was 16 µg/mL; in the data set on Staphylococcus aureus [12], 16 µg/mL; in the data set with Staphylococcus aureus [13] it was 16 µg/mL. Besides, in [3], the selectivity ratio was greater than 640. Moreover, the HC50 at 1 h in data set [4] came to 16 µg/mL.
For `CN(C)c1ccc(-c2nc3c4ccccc4c4ccccc4c3n2CCCCC[N+](C)(C)CC(=O)N2CCSCC2)cc1.[Br-]`, the MIC worked out at 8 µg/mL in the data set on Staphylococcus aureus [1]; 8 µg/mL against Staphylococcus aureus [2]; 4 µg/mL against Staphylococcus aureus [5]; 4 µg/mL with Staphylococcus aureus [6]; 8 µg/mL in the data set with Staphylococcus aureus [7]; 4 µg/mL against Staphylococcus aureus [8]. Moreover, the MIC was 8 µg/mL in the data set with Staphylococcus aureus [9]; greater than 128 µg/mL against Escherichia coli; 4 µg/mL in the data set on Staphylococcus aureus [10]; 4 µg/mL with Staphylococcus aureus [11]; 4 µg/mL in the data set on Staphylococcus aureus [12]; 4 µg/mL against Staphylococcus aureus [13]. In addition, the selectivity ratio in data set [3] was greater than 160. Moreover, in data set [4], the HC50 at 1 h was greater than 640 µg/mL.
`CCCNC(=O)C[N+](C)(C)CCCCCn1c(-c2ccc(N(C)C)cc2)nc2c3ccccc3c3ccccc3c21.[Br-]`: the minimum inhibitory concentration (MIC) against Staphylococcus aureus [1] came out at 8 µg/mL; against Staphylococcus aureus [2], 8 µg/mL; in the data set with Staphylococcus aureus [5], 4 µg/mL; in the data set with Staphylococcus aureus [6] it was 4 µg/mL; against Staphylococcus aureus [7], 8 µg/mL; with Staphylococcus aureus [8] it was 8 µg/mL. Moreover, the MIC in the data set with Staphylococcus aureus [9] is 8 µg/mL; against Escherichia coli, 64 µg/mL; in the data set on Staphylococcus aureus [10] it was 4 µg/mL; in the data set on Staphylococcus aureus [11] it was 4 µg/mL; in the data set with Staphylococcus aureus [12], 4 µg/mL; with Staphylococcus aureus [13] it was 8 µg/mL. In data set [3], the selectivity ratio was determined as 91.9. Besides, the HC50 at 1 h in data set [4] stood at 735 µg/mL.
With `CCCCCCNC(=O)C[N+](C)(C)CCCCCn1c(-c2ccc(N(C)C)cc2)nc2c3ccccc3c3ccccc3c21.[Br-]`, the MIC turned out to be 4 µg/mL against Staphylococcus aureus [1]; 8 µg/mL in the data set on Staphylococcus aureus [2]; 2 µg/mL with Staphylococcus aureus [5]; 4 µg/mL against Staphylococcus aureus [6]; 8 µg/mL against Staphylococcus aureus [7]; 2 µg/mL with Staphylococcus aureus [8]. Further, the MIC against Staphylococcus aureus [9] stood at 8 µg/mL; with Escherichia coli, 64 µg/mL; against Staphylococcus aureus [10], 2 µg/mL; with Staphylococcus aureus [11], 1 µg/mL; with Staphylococcus aureus [12] it was 1 µg/mL; against Staphylococcus aureus [13] it was 2 µg/mL. In addition, in data set [3], the selectivity ratio is 221. In [4], this compound came in with an HC50 at 1 h of 442 µg/mL.
